Source: patent publication US20110046185A1, “Arylchalcogenoarylalkyl-substituted imidazolidine-2,4-diones, process for preparation thereof, medicaments comprising these compounds and use thereof” (SANOFI-AVENTIS, priority 2008, published 2011)
Read-outs that look alike come from different tables or passages of the source.

Columns and labels:
hCB2R = biological target: T1, hCB2R (Homo sapiens, UniProt P34972); test: In vitro functional FLIPR assay with recombinant HEK293 cells, cannabinoid 2 receptor; assay type: cell-based; conditions: recombinant HEK293 cells expressing CB2 and Galpha16; Ca2+ change vs reference agonist
T1 construct: expressed in transfected cells; host or cells: HEK293
Protocol: (§1) Function-testing assays were performed by means of the FLIPR technique (“Fluorometric Imaging Plate Reader”, Molecular Devices Corp.).
(§2) To this end, ligand-induced changes in the intracellular concentration of Ca^2+ in recombinant HEK293 cells, which expressed both a cannabinoid receptor (CB1 or CB2) and G-protein Galpha16, were determined. For the studies, cells were sown into 96-well microtiter plates (60 000 cells/well) and left to grow overnight. The medium was removed and the cells were incubated in buffer which contained the fluorescent dye Fluo-4. After this loading with dye, the cells were washed, test substance was added dissolved in buffer, the mixture was incubated for 20 minutes, a known cannabinoid receptor agonist as a reference agonist was added in buffer and, finally, the changes in the intracellular Ca^2+ concentration were measured in the FLIPR unit.
(§3) Results were presented as the percentage change relative to the control (0%: analogous experiment without test substance and without reference agonist, i.e. only with buffer; 100%: analogous experiment without test substance, but with reference agonist in excess), and used to calculate dose/action curves, and IC50 values were determined.

hCB1R [1] = biological target: T2, hCB1R (Homo sapiens, UniProt P21554); test: Binding to the CB1 receptor ([3H]-SR141716A displacement, CHO-K1/cannabinoid CB1 protein); set-up: expressed in transfected cells
Protocol: Test compounds: The compounds (3 μl, 10 mM, 100% DMSO), pipetted into 96-well PP microtiter plates, were diluted with 27 μl of 100% DMSO (dimethyl sulfoxide). Proceeding from this solution, further 3-fold dilution steps were undertaken by transferring 10 μl in each case to a new PP microtiter plate and adding a further 20 μl of 100% DMSO. In each case 6 μl of these solutions were transferred into new 96-well PP microtiter plates and made up with 144 μl of assay buffer. The end concentrations ranged from 10 μM to 0.005 μM.
Negative control: AM 251, dissolved in assay buffer with 1% DMSO, was added to the dilution series in the microtiter plates as a control. The end concentration was 1 μM.
Blank control: assay buffer with 1% DMSO was added to the dilution series of the microtiter plates as a blank control.
The values were calculated using the corrected raw data.
The values reported were obtained as average values of a double determination. The IC50 values were calculated from the measurements with the program Xlfit, formula 205. Ki values were obtained from the IC50 and Kd values utilizing the Cheng-Prusoff equation: […]
Literature: Cheng, Y.-C., and Prusoff, W. H. (1973) Biochem. Pharmacol 22, 3099-3108 Results: Ki values of example compounds;

hCB1R [2] = biological target: T2, hCB1R; test: In vitro functional FLIPR assay with recombinant HEK293 cells, cannabinoid 1 receptor; assay type: cell-based; set-up: expressed in transfected cells; host or cells: HEK293; conditions: recombinant HEK293 cells expressing CB1 and Galpha16; Ca2+ change vs reference agonist
Protocol: as §1, §2, §3

[3] = [3H]-SR141716A 0.5 nM, Ki from IC50 by Cheng-Prusoff, average of double determination, read-out: hCB1R, binding Ki

T1 sequence (P34972 whole entry): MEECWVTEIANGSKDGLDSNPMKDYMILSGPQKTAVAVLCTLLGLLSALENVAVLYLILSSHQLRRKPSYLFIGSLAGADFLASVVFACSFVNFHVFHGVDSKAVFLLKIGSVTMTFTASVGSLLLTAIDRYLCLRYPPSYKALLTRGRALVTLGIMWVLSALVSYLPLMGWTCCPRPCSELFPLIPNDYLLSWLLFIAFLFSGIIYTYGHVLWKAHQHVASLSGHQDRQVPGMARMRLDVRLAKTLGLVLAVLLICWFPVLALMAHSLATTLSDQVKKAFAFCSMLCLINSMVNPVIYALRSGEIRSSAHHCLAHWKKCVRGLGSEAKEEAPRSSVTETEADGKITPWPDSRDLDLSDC
T2 sequence (P21554 whole entry): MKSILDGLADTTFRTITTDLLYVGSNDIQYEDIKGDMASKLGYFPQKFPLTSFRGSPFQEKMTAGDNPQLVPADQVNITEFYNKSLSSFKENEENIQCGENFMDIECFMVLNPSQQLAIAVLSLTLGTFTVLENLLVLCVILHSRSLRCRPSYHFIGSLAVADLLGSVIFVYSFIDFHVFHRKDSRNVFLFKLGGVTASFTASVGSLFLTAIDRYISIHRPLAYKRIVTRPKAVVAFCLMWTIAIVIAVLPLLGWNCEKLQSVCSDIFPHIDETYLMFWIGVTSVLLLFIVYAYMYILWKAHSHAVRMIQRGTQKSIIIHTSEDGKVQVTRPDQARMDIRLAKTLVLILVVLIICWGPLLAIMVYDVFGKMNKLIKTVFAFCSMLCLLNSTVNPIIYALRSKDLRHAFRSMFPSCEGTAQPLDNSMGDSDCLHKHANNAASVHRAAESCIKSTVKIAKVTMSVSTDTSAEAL

| Compound | IC50 (hCB2R) | Ki (hCB1R [1]) | IC50 (hCB1R [2]) | Ki (hCB1R [1]; [3]) |
| --- | --- | --- | --- | --- |
| CC1(C)C(=O)N(c2ccc(C#N)c(C(F)(F)F)c2)C(=O)N1Cc1ccccc1Sc1ccc(Cl)cc1 [Example 105, 4-{3-[2-(4-Chlorophenylsulfanyl)benzyl]-4,4-dimethyl-2,5-dioxoimidazolidin-1-yl}-2-trifluoromethylbenzonitrile] | > 10000 nM | 44 nM | – | – |
| CC1(C)C(=O)N(c2ccc(C#N)c(C(F)(F)F)c2)C(=O)N1Cc1ccccc1Oc1ccc(C(N)=O)cc1 [Example 98, 4-{2-[3-(4-Cyano-3-trifluoromethylphenyl)-5,5-dimethyl-2,4-dioxo-imidazolidin-1-ylmethyl]phenoxy}benzamide] | > 10000 nM | – | 507 nM | – |
| COC(=O)c1ccc(Oc2ccccc2CN2C(=O)N(c3ccc(C#N)c(C(F)(F)F)c3)C(=O)C2(C)C)cc1 [Example 96] | – | 22 nM | 152 nM | – |
| CC1(C)C(=O)N(c2cccc(SC(F)(F)F)c2)C(=O)N1Cc1ccccc1Oc1ccccc1 [Example 14] | – | – | – | 289 nM |
| CC1(C)C(=O)N(c2ccnc(Cl)c2)C(=O)N1Cc1ccccc1Oc1ccccc1 [Example 82] | > 10000 nM | – | 100 nM | 2 nM |
| CC1(C)C(=O)N(c2cccc(C(F)(F)F)c2)C(=O)N1Cc1ccccc1Oc1ccccc1 [Example 8] | – | – | – | 249 nM |
| CC1(C)C(=O)N(c2ccc(C#N)c(C(F)(F)F)c2)C(=O)N1Cc1ccccc1[S+]([O-])c1ccc(Cl)cc1 (centres unmarked) [Example 107, 4-{3-[2-(4-Chlorobenzenesulfinyl)benzyl]-4,4-dimethyl-2,5-dioxoimidazolidin-1-yl}-2-trifluoromethylbenzonitrile] | – | – | – | 232 nM |
| CC1(C)C(=O)N(c2ccnc(C(F)(F)F)c2)C(=O)N1Cc1ccccc1Oc1ccccc1 [Example 83] | – | – | – | 24 nM |
| CC1(C)C(=O)N(c2ccc(C#N)nc2)C(=O)N1Cc1ccccc1Oc1ccccc1 [Example 86] | – | – | – | 311 nM |
| CC1(C)C(=O)N(c2ccc(C#N)c(C(F)(F)F)c2)C(=O)N1Cc1ccccc1Oc1ccc(C(=O)O)cc1 [Example 97, 4-{2-[3-(4-Cyano-3-trifluoromethylphenyl)-5,5-dimethyl-2,4-dioxo-imidazolidin-1-ylmethyl]phenoxy}benzoic acid] | > 10000 nM | – | – | 533 nM |
| CC1(C)C(=O)N(c2cc(C(F)(F)F)ccc2F)C(=O)N1Cc1ccccc1Oc1ccccc1 [Example 12] | – | – | – | 284 nM |
